Experimental data reported in patent US10294202B2, “Pyrrolidinones as herbicides” (FMC Corporation, priority 2013, dated 2019).

Legend:
barnyardgrass = assay: Test A pre-/postemergence herbicide test; assay type: in vivo, Echinochloa crus-galli
Text: (§1) Seeds of plant species selected from bamyardgrass (Echinochloa crus-galli), kochia (Kochia scoparia), ragweed (common ragweed, Ambrosia elatior), ryegrass, Italian (Italian ryegrass, Lolium multiflorum), crabgrass, large (large crabgrass Digitaria sanguinalis), giant foxtail (Setaria faberii), morningglory (Ipomoea spp.), pigweed (Amaranthus retroflexus), velvetleaf (Abutilon theophrasti), wheat (Triticum aestivum), and corn (Zea mays) were planted into a blend of loam soil and sand and treated preemergence with a directed soil spray using test chemicals formulated in a non-phytotoxic solvent mixture which included a surfactant. At the same time, plants selected from these crop and weed species and also blackgrass (Alopecurus myosuroides), and galium (catchweed bedstraw, Galium aparine) were planted in pots containing the same blend of loam soil and sand and treated with postemergence applications of test chemicals formulated in the same manner. Plants ranged in height from 2 to 10 cm and were in the one- to two-leaf stage for the postemergence treatment. Treated plants and untreated controls were maintained in a greenhouse for approximately 10 days, after which time all treated plants were compared to untreated controls and visually evaluated for injury. Plant response ratings, summarized in Table A, are based on a 0 to 100 scale where 0 is no effect and 100 is complete control. A dash (-) response means no test result.

kochia = assay: Test A pre-/postemergence herbicide test; assay type: in vivo, Kochia scoparia
Text: as §1

ragweed = assay: Test A pre-/postemergence herbicide test; assay type: in vivo, Ambrosia elatior
Text: as §1

ryegrass, Italian = assay: Test A pre-/postemergence herbicide test; assay type: in vivo, Lolium multiflorum
Text: as §1

giant foxtail = assay: Test A pre-/postemergence herbicide test; assay type: in vivo, Setaria faberii
Method in brief: (§2)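 Scoring was visual, relative to untreated controls, on a 0–100 scale after about 10 greenhouse days. Preemergence treatment used a directed soil spray over seeded loam/sand; postemergence treatment targeted one- to two-leaf plants of 2–10 cm.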

pigweed = assay: Test A pre-/postemergence herbicide test; assay type: in vivo, Amaranthus retroflexus
Method in brief: as §2

wheat = assay: Test A pre-/postemergence herbicide test; assay type: in vivo, Triticum aestivum; conditions: Postemergence
Text: as §1

corn = assay: Test A pre-/postemergence herbicide test; assay type: in vivo, Zea mays; conditions: Postemergence
Text: as §1

blackgrass = assay: Test A postemergence herbicide test; assay type: in vivo, Alopecurus myosuroides
Text: (§3) At the same time, plants selected from these crop and weed species and also blackgrass (Alopecurus myosuroides), and galium (catchweed bedstraw, Galium aparine) were planted in pots containing the same blend of loam soil and sand and treated with postemergence applications of test chemicals formulated in the same manner. Plants ranged in height from 2 to 10 cm and were in the one- to two-leaf stage for the postemergence treatment. Treated plants and untreated controls were maintained in a greenhouse for approximately 10 days, after which time all treated plants were compared to untreated controls and visually evaluated for injury. Plant response ratings, summarized in Table A, are based on a 0 to 100 scale where 0 is no effect and 100 is complete control. A dash (-) response means no test result.

galium = assay: Test A postemergence herbicide test; assay type: in vivo, Galium aparine
Text: as §3

[1] = Postemergence, 1000 g ai/ha, 0 to 100 scale (0 no effect, 100 complete control)
[2] = preemergence, 1000 g ai/ha, 0 to 100 scale
[3] = 1000 g ai/ha, 0 to 100 scale (0 no effect, 100 complete control)
[4] = 125 g ai/ha, visual rating, 0 to 100 scale, 0 no effect, 100 complete control, approximately 10 days, preemergence
[5] = Postemergence, 125 g ai/ha, 0 to 100 scale, 0 is no effect, 100 is complete control
[6] = preemergence, 500 g ai/ha, 0 to 100 scale, 0 is no effect and 100 is complete control
[7] = 125 g ai/ha, 0 to 100 scale, 0 is no effect, 100 is complete control

`O=C1NCC(c2cccc(-c3ccccc3C(F)(F)F)c2)C1C(=O)Nc1ccccc1C(F)(F)F` (stereo not drawn) [Compound 237] was tested, and the “Plant response rating, Barnyardgrass” value (barnyardgrass; [1]) was 20, the “Plant response rating, Barnyardgrass” value (barnyardgrass; preemergence, 1000 g ai/ha, 0 to 100 scale (0 no effect, 100 complete control)) was 60 and the “Plant response rating, Kochia” value (kochia; [1]) was 0. For the same molecule, the “Plant response rating, Kochia” value (kochia; [2]) was 0, the “Plant response rating, Ragweed” value (ragweed; [1]) was 0 and the “Plant response rating, Ragweed” value (ragweed; [2]) was 0. For the same molecule, the “Plant response rating, Ryegrass, Italian” value (ryegrass, Italian; [1]) was 0, the “Plant response rating, Ryegrass, Italian” value (ryegrass, Italian; [2]) was 0 and the “Plant response rating, Foxtail, Giant” value (giant foxtail; [1]) was 0. For the same molecule, the “Plant response rating, Foxtail, Giant” value (giant foxtail; [2]) was 80, the “Plant response rating, Pigweed” value (pigweed; [1]) was 0 and the “Plant response rating, Pigweed” value (pigweed; [2]) was 0. For the same molecule, the “Plant response rating, Wheat” value (wheat; [3]) was 0, the “Plant response rating, Corn” value (corn; [3]) was 0 and the “Plant response rating, Blackgrass” value (blackgrass; [3]) was 0. The “Plant response rating, Galium” value (galium; [3]) was 0.

In the case of `Cc1cccc(NC(=O)C2C(=O)NCC2c2cccc(C(F)(F)F)c2)c1F` (racemic) [Compound 184], the “Plant response rating, Barnyardgrass” value (barnyardgrass; [4]) is reported as 70, the “Plant response rating, Barnyardgrass” value (barnyardgrass; [5]) is reported as 70 and the “Barnyardgrass plant response rating (0 to 100 scale, 0 is no effect, 100 is complete control)” value (barnyardgrass; Postemergence, 500 g ai/ha) is reported as 80. For the same molecule, the “Plant response rating, Barnyardgrass” value (barnyardgrass; [6]) was 90, the “Plant response rating, Kochia” value (kochia; [4]) was 0 and the “Plant response rating, Kochia” value (kochia; [5]) was 0. For the same molecule, the “Kochia plant response rating (0 to 100 scale, 0 is no effect, 100 is complete control)” value (kochia; Postemergence, 500 g ai/ha) was 0, the “Plant response rating, Kochia” value (kochia; [6]) was 20 and the “Plant response rating, Ragweed” value (ragweed; [4]) was 0. For the same molecule, the “Plant response rating, Ragweed” value (ragweed; [5]) was 0, the “Ragweed plant response rating (0 to 100 scale, 0 is no effect, 100 is complete control)” value (ragweed; Postemergence, 500 g ai/ha) was 0 and the “Plant response rating, Ragweed” value (ragweed; [6]) was 0. The “Plant response rating, Ryegrass, Italian” value (ryegrass, Italian; [4]) was 0, the “Plant response rating, Ryegrass, Italian” value (ryegrass, Italian; [5]) was 0 and the “Ryegrass, Italian plant response rating (0 to 100 scale, 0 is no effect, 100 is complete control)” value (ryegrass, Italian; Postemergence, 500 g ai/ha) was 20. For the same molecule, the “Plant response rating, Ryegrass, Italian” value (ryegrass, Italian; [6]) was 0, the “Plant response rating, Foxtail, Giant” value (giant foxtail; [4]) was 90 and the “Plant response rating, Foxtail, Giant” value (giant foxtail; [5]) was 70. For the same molecule, the “Foxtail, Giant plant response rating (0 to 100 scale, 0 is no effect, 100 is complete control)” value (giant foxtail; Postemergence, 500 g ai/ha) was 80, the “Plant response rating, Foxtail, Giant” value (giant foxtail; [6]) was 90 and the “Plant response rating, Pigweed” value (pigweed; [4]) was 0. The “Plant response rating, Pigweed” value (pigweed; [5]) was 0, the “Pigweed plant response rating (0 to 100 scale, 0 is no effect, 100 is complete control)” value (pigweed; Postemergence, 500 g ai/ha) was 0 and the “Plant response rating, Pigweed” value (pigweed; [6]) was 0. The “Plant response rating, Wheat” value (wheat; [7]) was 0, the “Wheat plant response rating (0 to 100 scale, 0 is no effect, 100 is complete control)” value (wheat; 500 g ai/ha) was 40 and the “Plant response rating, Corn” value (corn; [7]) was 0. For the same molecule, the “Corn plant response rating (0 to 100 scale, 0 is no effect, 100 is complete control)” value (corn; 500 g ai/ha) was 20, the “Plant response rating, Blackgrass” value (blackgrass; [7]) was 0 and the “Blackgrass plant response rating (0 to 100 scale, 0 is no effect, 100 is complete control)” value (blackgrass; 500 g ai/ha) was 20. For the same molecule, the “Plant response rating, Galium” value (galium; [7]) was 0 and the “Galium plant response rating (0 to 100 scale, 0 is no effect, 100 is complete control)” value (galium; 500 g ai/ha) was 20.
